In brackets after ≈: the same amount, converted by molar mass. Where two headings read alike, the source gives them in different places.
Legend:
Type in all cases: physicochemical
[1] = Stability of levodopa and carbidopa solutions, HPLC potency test
Description: A formulation of: […] This powder mixture was dissolved in water at a concentration of 5.5 mg/ml of levodopa. This solution was filter through a 0.22 micrometer filter (with PVDF membrane) and then stored at temperatures of 4 degrees C., 25 degrees C. and 40 degrees C. […] This powder mixture was dissolved in water at concentration of 1.0 mg/ml of levodopa. This solution was filtered through a 0.22 micrometer filter (with PVDF membrane) and then stored at temperatures of 4 degrees C., 25 degrees C. and 40 degrees C. The sample solutions were submitted for HPLC potency test at each time point. The stability was monitored in percentage change compared to the initial potency.

[2] = Solubility of levodopa in citrate buffer at varying pH and buffer strength
Description: Solutions were made using Citric acid and tribasic Sodium Citrate dihydrate Initially a 1.0 M citric acid solution was made by weighing out 19.2 g Citric acid (FW 192.1) into a 100 mL volumetric flask and diluting with HPLC grade water. This was repeated with the Sodium Citrate (FW 294.1), by weighting out 29.4 g of sodium citrate in into a 100 mL volumetric flask and diluting to 100 mL with water. A series of 8 of 20 mL scintillation vials were then labeled and prepared as follows:
These pH adjustments were made with the sodium citrate (also 1.0 M) to keep a consistent molarity with the citrate. From these mother vials, 2 subsequent sets of solution were made for the molar concentrations 0.45 and 0.15 M. 0.45 M is for a 3:1 buffer and 0.15 M is for a 1:1 buffer. These solutions were also pH adjusted with molar equivalent solution to keep the pH value consistent throughout each dilution and after adding the levodopa.

[3] = Levodopa solubility in 3.5 mg/ml ascorbic acid solution; settings: aqueous buffer, thermodynamic from solid, stirring 24 hour at RT, read-out: concentration of levodopa in the filtration (maximum solubility)
Description: Levedopa solubility in ascorbic acid solution an ascorbic acid concentration of 3.5 mg/ml was tested. A sample of 3.5 mg/ml ascorbic acid was made by adding 70.0 mg of ascorbic acid into 20 ml of water. Then, 80.0 mg of levodopa powder was dissolved into the 3.5 mg/ml ascorbic sample by stirring for 24 hour at RT. The projected levodopa concentration was 4 mg/ml. The sample was filtered through a 0.22μ PVDF filter to remove the insoluble levodopa. The filtration was assayed by HPLC at 10× dilution with water. The HPLC data indicated the concentration of levodopa in the filtration was 2.0 mg/ml.

[4] = Levodopa/Ascorbic/Carbidopa/at 1/3/0.2 at 4 C., 1 Day
[5] = Levodopa/Ascorbic/Carbidopa/at 1/3/0.2 at 4 C., 2 Day
[6] = Levodopa/Ascorbic/Carbidopa/at 1/3/0.2 at 4 C., 7 Day
[7] = Levodopa/Ascorbic/Carbidopa/at 1/3/0.2 at 4 C., Initial
[8] = Levodopa/Ascorbic/Carbidopa/at 1/3/0.2 at 25 C., 1 Day
[9] = Levodopa/Ascorbic/Carbidopa/at 1/3/0.2 at 25 C., 2 Day
[10] = Levodopa/Ascorbic/Carbidopa/at 1/3/0.2 at 25 C., 7 Day
[11] = Levodopa/Ascorbic/Carbidopa/at 1/3/0.2 at 25 C., Initial
[12] = Levodopa/Ascorbic/Carbidopa/at 1/3/0.2 at 40 C., 1 Day
[13] = Levodopa/Ascorbic/Carbidopa/at 1/3/0.2 at 40 C., 2 Day
[14] = Levodopa/Ascorbic/Carbidopa/at 1/3/0.2 at 40 C., 7 Day
[15] = Levodopa/Ascorbic/Carbidopa/at 1/3/0.2 at 40 C., Initial
[16] = Levodopa/Citric/Carbidopa/Sucrose at 1/3/0.2/1 at 4 C., 1 Day
[17] = Levodopa/Citric/Carbidopa/Sucrose at 1/3/0.2/1 at 4 C., 2 Day
[18] = Levodopa/Citric/Carbidopa/Sucrose at 1/3/0.2/1 at 4 C., 3 Day
[19] = Levodopa/Citric/Carbidopa/Sucrose at 1/3/0.2/1 at 4 C., 7 Day
[20] = Levodopa/Citric/Carbidopa/Sucrose at 1/3/0.2/1 at 4 C., Initial
[21] = Levodopa/Citric/Carbidopa/Sucrose at 1/3/0.2/1 at 25 C., 1 Day
[22] = Levodopa/Citric/Carbidopa/Sucrose at 1/3/0.2/1 at 25 C., 2 Day
[23] = Levodopa/Citric/Carbidopa/Sucrose at 1/3/0.2/1 at 25 C., 3 Day
[24] = Levodopa/Citric/Carbidopa/Sucrose at 1/3/0.2/1 at 25 C., 7 Day
[25] = Levodopa/Citric/Carbidopa/Sucrose at 1/3/0.2/1 at 25 C., Initial
[26] = Levodopa/Citric/Carbidopa/Sucrose at 1/3/0.2/1 at 40 C., 1 Day
[27] = Levodopa/Citric/Carbidopa/Sucrose at 1/3/0.2/1 at 40 C., 2 Day
[28] = Levodopa/Citric/Carbidopa/Sucrose at 1/3/0.2/1 at 40 C., 3 Day
[29] = Levodopa/Citric/Carbidopa/Sucrose at 1/3/0.2/1 at 40 C., 7 Day
[30] = Levodopa/Citric/Carbidopa/Sucrose at 1/3/0.2/1 at 40 C., Initial

In the case of `C[C@@](Cc1ccc(O)c(O)c1)(NN)C(=O)O` [Carbidopa], the “HPLC potency, percentage compared to the initial potency” value (“HPLC potency, percentage” below) [1, 4] was 101%, the “HPLC potency, percentage” value [1, 5] was 101% and the “HPLC potency, percentage” value [1, 6] was 101%. For the same molecule, the “HPLC potency, percentage” value [1, 7] was 100%, the “HPLC potency, percentage” value [1, 8] was 99% and the “HPLC potency, percentage” value [1, 9] was 97%. The “HPLC potency, percentage” value [1, 10] was 87%, the “HPLC potency, percentage” value [1, 11] was 100% and the “HPLC potency, percentage” value [1, 12] was 94%. For the same molecule, the “HPLC potency, percentage” value [1, 13] was 88%, the “HPLC potency, percentage” value [1, 14] was 88% and the “HPLC potency, percentage” value [1, 15] was 100%. For the same molecule, the “HPLC potency, percentage” value [1, 16] was 100%, the “HPLC potency, percentage” value [1, 17] was 100% and the “HPLC potency, percentage” value [1, 18] was 101%. The “HPLC potency, percentage” value [1, 19] was 100%, the “HPLC potency, percentage” value [1, 20] was 100% and the “HPLC potency, percentage” value [1, 21] was 98%. For the same molecule, the “HPLC potency, percentage” value [1, 22] was 96%, the “HPLC potency, percentage” value [1, 23] was 96% and the “HPLC potency, percentage” value [1, 24] was 91%. The “HPLC potency, percentage” value [1, 25] was 100%, the “HPLC potency, percentage” value [1, 26] was 91% and the “HPLC potency, percentage” value [1, 27] was 84%. For the same molecule, the “HPLC potency, percentage” value [1, 28] was 81%, the “HPLC potency, percentage” value [1, 29] was 75% and the “HPLC potency, percentage” value [1, 30] was 100%.
Molecule `N[C@@H](Cc1ccc(O)c(O)c1)C(=O)O` [Levodopa] has a solubility ([2]; pH 1.5, aqueous buffer, Citrate buffer 0.15M pH1.5, read-out: Conc (levodopa solubility)) of 7200 µg/mL (≈ 36.5 mM), a solubility ([2]; pH 1.5, aqueous buffer, Citrate buffer 0.45M pH1.5, read-out: Conc (levodopa solubility)) of 11400 µg/mL (≈ 57.8 mM) and a solubility ([2]; pH 1.5, aqueous buffer, Citrate buffer 1.0M pH 1.5, read-out: Conc (levodopa solubility)) of 17900 µg/mL (≈ 90.9 mM). For the same molecule, the solubility ([2]; pH 2.5, aqueous buffer, Citrate buffer 0.15M pH2.5, read-out: Conc (levodopa solubility)) was 4870 µg/mL (≈ 24.7 mM), the solubility ([2]; pH 2.5, aqueous buffer, Citrate buffer 0.45M pH2.5, read-out: Conc (levodopa solubility)) was 5820 µg/mL (≈ 29.5 mM) and the solubility ([2]; pH 2.5, aqueous buffer, Citrate buffer 1.0M pH 2.5, read-out: Conc (levodopa solubility)) was 7430 µg/mL (≈ 37.7 mM). It also gave a solubility ([2]; pH 3, aqueous buffer, Citrate buffer 0.15M pH3.0, read-out: Conc (levodopa solubility)) of 4210 µg/mL (≈ 21.3 mM), a solubility ([2]; pH 3, aqueous buffer, Citrate buffer 0.45M pH3.0, read-out: Conc (levodopa solubility)) of 4850 µg/mL (≈ 24.6 mM) and a solubility ([2]; pH 3, aqueous buffer, Citrate buffer 1.0M pH 3.0, read-out: Conc (levodopa solubility)) of 5930 µg/mL (≈ 30.1 mM). It also gave a solubility ([2]; pH 3.5, aqueous buffer, Citrate buffer 0.15M pH3.5, read-out: Conc (levodopa solubility)) of 3900 µg/mL (≈ 19.8 mM), a solubility ([2]; pH 3.5, aqueous buffer, Citrate buffer 0.45M pH3.5, read-out: Conc (levodopa solubility)) of 4510 µg/mL (≈ 22.9 mM) and a solubility ([2]; pH 3.5, aqueous buffer, Citrate buffer 1.0M pH 3.5, read-out: Conc (levodopa solubility)) of 5230 µg/mL (≈ 26.5 mM). The solubility ([2]; pH 4, aqueous buffer, Citrate buffer 0.15M pH4.0, read-out: Conc (levodopa solubility)) was 3790 µg/mL (≈ 19.2 mM), the solubility ([2]; pH 4, aqueous buffer, Citrate buffer 0.45M pH4.0, read-out: Conc (levodopa solubility)) was 4250 µg/mL (≈ 21.6 mM) and the solubility ([2]; pH 4, aqueous buffer, Citrate buffer 1.0M pH 4.0, read-out: Conc (levodopa solubility)) was 4650 µg/mL (≈ 23.6 mM). The solubility ([2]; pH 4.5, aqueous buffer, Citrate buffer 0.15M pH4.5, read-out: Conc (levodopa solubility)) was 3880 µg/mL (≈ 19.7 mM), the solubility ([2]; pH 4.5, aqueous buffer, Citrate buffer 0.45M pH4.5, read-out: Conc (levodopa solubility)) was 4250 µg/mL (≈ 21.6 mM) and the solubility ([2]; pH 4.5, aqueous buffer, Citrate buffer 1.0M pH 4.5, read-out: Conc (levodopa solubility)) was 4440 µg/mL (≈ 22.5 mM). It also gave a solubility ([2]; pH 5, aqueous buffer, Citrate buffer 0.15M pH5.0, read-out: Conc (levodopa solubility)) of 3880 µg/mL (≈ 19.7 mM), a solubility ([2]; pH 5, aqueous buffer, Citrate buffer 0.45M pH5.0, read-out: Conc (levodopa solubility)) of 4150 µg/mL (≈ 21 mM) and a solubility ([2]; pH 5, aqueous buffer, Citrate buffer 1.0M pH 5.0, read-out: Conc (levodopa solubility)) of 4170 µg/mL (≈ 21.1 mM). The solubility ([2]; pH 6, aqueous buffer, Citrate buffer 0.15M pH6.0, read-out: Conc (levodopa solubility)) was 3950 µg/mL (≈ 20 mM), the solubility ([2]; pH 6, aqueous buffer, Citrate buffer 0.45M pH6.0, read-out: Conc (levodopa solubility)) was 4160 µg/mL (≈ 21.1 mM) and the solubility ([2]; pH 6, aqueous buffer, Citrate buffer 1.0M pH 6.0, read-out: Conc (levodopa solubility)) was 3870 µg/mL (≈ 19.6 mM). For the same molecule, the “HPLC potency, percentage” value [1, 4] was 100%, the “HPLC potency, percentage” value [1, 5] was 100% and the “HPLC potency, percentage” value [1, 6] was 102%. The “HPLC potency, percentage” value [1, 7] was 100%, the “HPLC potency, percentage” value [1, 8] was 100% and the “HPLC potency, percentage” value [1, 9] was 100%. The “HPLC potency, percentage” value [1, 10] was 102%, the “HPLC potency, percentage” value [1, 11] was 100% and the “HPLC potency, percentage” value [1, 12] was 100%. For the same molecule, the “HPLC potency, percentage” value [1, 13] was 101%, the “HPLC potency, percentage” value [1, 14] was 104% and the “HPLC potency, percentage” value [1, 15] was 100%. The “HPLC potency, percentage” value [1, 16] was 100%, the “HPLC potency, percentage” value [1, 17] was 100% and the “HPLC potency, percentage” value [1, 18] was 100%. For the same molecule, the “HPLC potency, percentage” value [1, 19] was 100%, the “HPLC potency, percentage” value [1, 20] was 100% and the “HPLC potency, percentage” value [1, 21] was 100%. The “HPLC potency, percentage” value [1, 22] was 100%, the “HPLC potency, percentage” value [1, 23] was 100% and the “HPLC potency, percentage” value [1, 24] was 100%. The “HPLC potency, percentage” value [1, 25] was 100%, the “HPLC potency, percentage” value [1, 26] was 100% and the “HPLC potency, percentage” value [1, 27] was 100%. For the same molecule, the “HPLC potency, percentage” value [1, 28] was 100%, the “HPLC potency, percentage” value [1, 29] was 100% and the “HPLC potency, percentage” value [1, 30] was 100%. The solubility at 24 h [3] was 2000 µg/mL (≈ 10.1 mM).
